ChEMBL document CHEMBL3860045 (Bioorg Med Chem Lett, 2016)

Legend:
[1] = target: T1, High affinity choline transporter 1 (Homo sapiens) (UniProt Q9GZV3); test: Inhibition of [3H]choline uptake at human choline transporter expressed in HEK293 cells at 5 uM preincubated for 15 mins followed by [3H]choline addition measured after 10 to 15 mins by scintillation proximity assay relative to control; format: cell-based
T1 sequence (whole entry): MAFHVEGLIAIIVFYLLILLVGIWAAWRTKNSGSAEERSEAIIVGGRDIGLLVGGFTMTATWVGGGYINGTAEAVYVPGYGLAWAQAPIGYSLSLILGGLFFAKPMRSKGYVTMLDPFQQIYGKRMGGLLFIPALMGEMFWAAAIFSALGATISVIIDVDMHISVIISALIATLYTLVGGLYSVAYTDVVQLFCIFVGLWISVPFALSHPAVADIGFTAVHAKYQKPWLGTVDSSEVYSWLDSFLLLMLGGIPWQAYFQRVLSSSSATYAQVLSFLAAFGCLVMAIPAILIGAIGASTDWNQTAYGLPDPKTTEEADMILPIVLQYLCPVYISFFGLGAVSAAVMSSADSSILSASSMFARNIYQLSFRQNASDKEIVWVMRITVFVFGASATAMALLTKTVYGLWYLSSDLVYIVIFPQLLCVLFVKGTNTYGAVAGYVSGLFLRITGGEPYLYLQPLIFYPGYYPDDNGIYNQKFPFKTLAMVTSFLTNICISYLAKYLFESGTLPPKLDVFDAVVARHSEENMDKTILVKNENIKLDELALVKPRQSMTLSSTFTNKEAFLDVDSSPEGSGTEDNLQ

[2] = target: T2, High affinity choline transporter 1 (Homo sapiens, UniProt Q9GZV3); test: Inhibition of [3H]choline uptake at human choline transporter expressed in HEK293 cells preincubated for 15 mins followed by [3H]choline addition measured after 10 to 15 mins by scintillation proximity assay; format: cell-based
T2 sequence (Q9GZV3 whole entry): T1 sequence (whole entry)

[3] = Intrinsic clearance in human liver microsomes at 1 uM preincubated with microsomes followed by NADPH addition measured up to 45 mins by LC-MS/MS analysis; format: ADME; details: read-out: CLH
[4] = Fraction unbound in rat brain after 4 hrs by LC-MS/MS based equilibrium dialysis method; format: ADME, tissue-based
[5] = Ratio of drug level in cannulated Sprague-Dawley rat brain to plasma at 1 mg/kg, iv; format: ADME, organism-based
[6] = Half life in cannulated Sprague-Dawley rat plasma at 1 mg/kg, iv by LC-MS/MS analysis; format: ADME, organism-based
[7] = Plasma concentration in cannulated Sprague-Dawley rat at 1 mg/kg, iv after […] by LC-MS/MS analysis; format: ADME, organism-based
[8] = Drug uptake in cannulated Sprague-Dawley rat brain at 1 mg/kg, iv administered twice at 24 hrs interval followed by 0.75 min of isoflurane treatment post 15 min second dose measured after […] by LC-MS/MS analysis; format: ADME, organism-based; details: read-out: Drug uptake
[9] = Fraction unbound in human plasma after 4 hrs by LC-MS/MS based equilibrium dialysis method; format: ADME, cell-free
[10] = Fraction unbound in rat plasma after 4 hrs by LC-MS/MS based equilibrium dialysis method; format: ADME, cell-free
[11] = Volume of distribution at steady state in cannulated Sprague-Dawley rat at 1 mg/kg, iv up to 24 hrs by LC-MS/MS analysis; format: ADME, organism-based; details: in vivo
[12] = Intrinsic clearance in rat liver microsomes at 1 uM preincubated with microsomes followed by NADPH addition measured up to 45 mins by LC-MS/MS analysis; format: ADME; details: read-out: CLH
Rattus norvegicus [13] = test: Cognitive enhancing effect in ip dosed rat assessed as increase in recognition index treated 30 mins prior test measured after 24 hrs by novel object recognition test relative to vehicle-treated control; format: functional, organism-based
Rattus norvegicus [14] = test: Cognitive enhancing effect in rat assessed as increase in recognition index at 3 mg/kg, ip treated 30 mins prior test measured after 24 hrs by novel object recognition test relative to vehicle-treated control; format: functional
Rattus norvegicus [15] = test: Toxicity in rat at >10 mg/kg, ip; format: organism-based; details: in vivo
Rattus norvegicus [16] = test: Cognitive enhancing effect in rat assessed as increase in recognition index at 10 mg/kg, ip treated 30 mins prior test measured after 24 hrs by novel object recognition test relative to vehicle-treated control; format: functional
Cytochrome P450 1A2 = target: T3, Cytochrome P450 1A2 (Homo sapiens, UniProt P05177); test: Inhibition of human CYP1A2; format: ADME
T3 sequence (P05177 whole entry): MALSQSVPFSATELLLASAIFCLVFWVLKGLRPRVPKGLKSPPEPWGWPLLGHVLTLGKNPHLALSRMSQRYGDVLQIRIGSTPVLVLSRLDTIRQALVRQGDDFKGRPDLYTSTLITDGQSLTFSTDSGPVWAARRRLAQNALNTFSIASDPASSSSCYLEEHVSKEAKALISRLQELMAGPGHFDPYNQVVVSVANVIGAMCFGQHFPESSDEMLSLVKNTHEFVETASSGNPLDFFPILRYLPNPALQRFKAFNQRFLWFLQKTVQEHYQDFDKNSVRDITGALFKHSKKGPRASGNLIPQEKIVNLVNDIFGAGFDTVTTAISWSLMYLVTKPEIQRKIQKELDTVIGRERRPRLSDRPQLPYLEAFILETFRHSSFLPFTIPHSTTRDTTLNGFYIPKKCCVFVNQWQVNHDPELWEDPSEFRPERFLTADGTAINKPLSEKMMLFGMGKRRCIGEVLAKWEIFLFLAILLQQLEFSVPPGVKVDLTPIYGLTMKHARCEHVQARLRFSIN

Cytochrome P450 2D6 = Cytochrome P450 2D6 (Homo sapiens, UniProt P10635); test: Inhibition of human CYP2D6; format: ADME
[17] = Plasma clearance in cannulated Sprague-Dawley rat at 1 mg/kg, iv up to 24 hrs by LC-MS/MS analysis; format: ADME, organism-based
[18] = Ratio of unbound concentration in cannulated Sprague-Dawley rat brain to plasma at 1 mg/kg, iv; format: ADME, organism-based; details: read-out: K(p,uu,brain)
Cytochrome P450 2C9 = Cytochrome P450 2C9 (Homo sapiens, UniProt P11712); test: Inhibition of human CYP2C9; format: ADME
Cytochrome P450 3A4 = Cytochrome P450 3A4 (Homo sapiens, UniProt P08684); test: Inhibition of human CYP3A4; format: ADME
Sequence of Cytochrome P450 3A4 (P08684 whole entry): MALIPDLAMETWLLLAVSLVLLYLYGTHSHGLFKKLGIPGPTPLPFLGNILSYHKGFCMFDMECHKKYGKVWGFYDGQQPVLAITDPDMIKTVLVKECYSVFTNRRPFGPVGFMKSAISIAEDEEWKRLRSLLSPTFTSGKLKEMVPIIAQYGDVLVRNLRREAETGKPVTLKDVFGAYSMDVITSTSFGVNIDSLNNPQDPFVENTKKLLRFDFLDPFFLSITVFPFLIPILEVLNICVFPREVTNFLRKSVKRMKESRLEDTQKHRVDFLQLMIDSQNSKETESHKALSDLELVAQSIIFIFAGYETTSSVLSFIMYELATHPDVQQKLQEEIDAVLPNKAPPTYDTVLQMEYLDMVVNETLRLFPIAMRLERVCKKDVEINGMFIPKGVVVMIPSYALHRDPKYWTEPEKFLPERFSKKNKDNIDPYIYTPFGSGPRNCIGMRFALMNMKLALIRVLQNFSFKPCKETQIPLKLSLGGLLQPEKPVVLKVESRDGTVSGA

Sequence of Cytochrome P450 2D6 (P10635 whole entry): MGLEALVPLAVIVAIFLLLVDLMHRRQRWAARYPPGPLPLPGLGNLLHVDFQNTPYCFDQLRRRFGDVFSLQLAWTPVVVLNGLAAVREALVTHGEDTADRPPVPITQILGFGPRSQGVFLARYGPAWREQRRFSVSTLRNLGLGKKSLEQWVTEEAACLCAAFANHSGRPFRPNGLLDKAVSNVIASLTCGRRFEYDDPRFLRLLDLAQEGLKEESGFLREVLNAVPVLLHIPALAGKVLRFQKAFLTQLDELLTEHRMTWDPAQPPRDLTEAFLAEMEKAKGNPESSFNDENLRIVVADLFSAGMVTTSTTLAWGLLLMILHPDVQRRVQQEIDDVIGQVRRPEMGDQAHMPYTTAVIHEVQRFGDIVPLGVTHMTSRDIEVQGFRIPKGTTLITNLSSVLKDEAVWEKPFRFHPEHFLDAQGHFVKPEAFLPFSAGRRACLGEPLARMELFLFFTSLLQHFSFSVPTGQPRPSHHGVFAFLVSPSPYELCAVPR
Sequence of Cytochrome P450 2C9 (P11712 whole entry): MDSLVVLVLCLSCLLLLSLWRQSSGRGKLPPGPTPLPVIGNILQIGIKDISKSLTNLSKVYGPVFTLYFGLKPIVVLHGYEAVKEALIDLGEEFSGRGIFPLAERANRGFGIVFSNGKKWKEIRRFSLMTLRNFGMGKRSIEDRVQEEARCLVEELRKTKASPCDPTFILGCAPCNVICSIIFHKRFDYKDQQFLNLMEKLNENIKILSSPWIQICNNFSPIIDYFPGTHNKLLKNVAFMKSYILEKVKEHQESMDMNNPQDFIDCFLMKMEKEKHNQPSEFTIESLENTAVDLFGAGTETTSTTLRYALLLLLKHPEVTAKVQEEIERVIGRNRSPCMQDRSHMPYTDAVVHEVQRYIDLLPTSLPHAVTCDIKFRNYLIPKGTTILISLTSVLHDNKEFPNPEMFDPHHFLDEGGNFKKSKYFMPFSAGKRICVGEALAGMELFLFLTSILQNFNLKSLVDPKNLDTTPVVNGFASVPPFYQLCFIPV

`CC(C)c1cc(CNC(=O)c2ccc(F)c(OC3CCN(C)CC3)c2)on1` showed an inhibition [1] greater than 50% and an IC50 [2] of 467 nM.

In the case of `COc1ccc(C(=O)NCc2cc(C(C)C)no2)cc1OC1CCN(C)CC1`, the CLint scaled at 1 µM [3] is reported as 10.4 mL/min/kg, the fraction unbound at 4 h [4] is reported as 0.36 and the Kp [5] is reported as 0.18. For the same compound, the t1/2 ([6]; in vivo) was 0.55 h, the concentration at […] [7] was 129 ng/mL and the concentration at […] [8] was 23.4 ng/g. The Fu ([9]; 4 h) was 0.67, the Fu ([10]; 4 h) was 0.35 and the Vdss ([11]; 24 h) was 3.2 L/kg. The CLint scaled at 1 µM [12] was 95 mL/min/kg.

For `COc1cc2c(cc1OC)C(=O)C(CC1CCN(Cc3ccccc3)CC1)C2` (stereo not drawn), the Activity (Rattus norvegicus [13]) was “Dose-dependent effect”.

For `CC(C)c1cc(CNC(=O)c2cccc(OC3CCN(C)CC3)c2)on1`, the inhibition [1] was greater than 50% and the IC50 [2] was 640 nM.

For `CC(C)c1cc(CNC(=O)c2ccc(Cl)c(OC3CCN(C)CC3)c2)on1`, the CLint scaled at 1 µM [3] was 10.4 mL/min/kg, the inhibition [1] was greater than 50% and the Activity (Rattus norvegicus [13]) was “Dose-dependent effect”. For the same compound, the fraction unbound at 4 h [4] was 0.65, the Activity (Rattus norvegicus [14]) was 28% and the Activity (Rattus norvegicus [15]) was “Toxic”. It also gave a Kp [5] of 0.34, an Activity (Rattus norvegicus [16]) of 24% and an IC50 (Cytochrome P450 1A2) greater than 30000 nM. The half-life ([6]; Sprague-Dawley, plasma) was 1.95 h, the IC50 (Cytochrome P450 2D6) was greater than 30000 nM and the clearance [17] was 1.54 mL/min/kg. For the same compound, the Kp uu [18] was 0.71, the concentration at […] [7] was 47.2 ng/mL and the concentration at […] [8] was 16.3 ng/g. For the same compound, the fraction unbound at 4 h [9] was 0.31, the IC50 (Cytochrome P450 2C9) was greater than 30000 nM and the fraction unbound at 4 h [10] was 0.19. The IC50 [2] was 270 nM, the Vd ([11]; Sprague-Dawley, read-out: Vdss) was 0.3 L/kg and the CLint scaled at 1 µM [12] was 42.5 mL/min/kg. The IC50 (Cytochrome P450 3A4) was greater than 30000 nM.

With `CC(C)c1cc(CNC(=O)c2ccc(C(F)(F)F)c(OC3CCN(C)CC3)c2)on1` the inhibition [1] was greater than 50% and the IC50 [2] was greater than 10000 nM.

In the case of `CC(C)c1cc(CNC(=O)c2ccc(C#N)c(OC3CCN(C)CC3)c2)on1`, the inhibition [1] is reported as greater than 50% and the IC50 [2] is reported as 3350 nM.

`CC(C)c1cc(CNC(=O)c2cccc(OC3CCN(C(C)C)CC3)c2)on1` gave an inhibition [1] greater than 50% and an IC50 [2] of 1840 nM.
